# Data taken from article PMC7374170, “TRIB3-EGFR interaction promotes lung cancer progression and defines a therapeutic target” (Nature Communications, 2020).
# Where two headings read alike, the source gives them in different places. Bridge positions count the residues as written; N and C are the ends. Square brackets hold non-standard residues; d marks the D form. Peptide text beside a SMILES is read from it. S5 = C=CCCC[C@](C)(N)C(=O)O
# What was measured:
# [1] = test system: cell surface EGFR in NCI-H157 cells; assay: Cell surface EGFR by flow cytometry, NCI-H157; assay type: cell-based, human; settings: TRIB3-overexpressing NCI-H157 cells, 10 µM monensin 4 hr, EGF 100 ng ml-1 1 hr
# Method: Supplementary Figure 2 Overexpression of TRIB3 promotes EGFR recycling. […]
# a, NCI-H157 cells and NCI-H157 cells stably expressed TRIB3 were non-stimulated or EGF […]
# (100 ng ml-1) stimulated for indicated times. Co-localization of EGFR with EEA1 was analyzed […]
# with confocal microscopy, quantification of EGFR and EEA1 colocalization was shown as […]
# Pearson’s coefﬁcient. Data are means ± SEM of 3 independent assays. b, Gating strategy to […]
# determine surface EGFR level presented in figure 2d and supplementary figure 2c. c, […]
# Quantitative analyses of cell surface EGFR in NCI-H157 cells stably expressed Empty-Vector […]
# or TRIB3-HA expression plasmid. Cells were pre-incubated with DM SO or 10 µM monensin […]
# cell surface was detected by flow cytometry analysis. […]
# detected in NCI-H157 cells with or without TRIB3-HA stably ectopic expression (d); or in NCI- […]
# localization of EGFR with Rab11 and LAMP1. Quantification of EGFR/Rab11 or […]
# 3 independent assays. Statistical significance between two groups was determined with two- […]
# tailed Student’s t-test. Statistical significance among groups was determined by one-way ANOVA test. […]
# Live cells were stained with Alexa-Fluro 488 anti-EGFR antibody (Santa Cruz, R-1, #sc-101 AF488, 1:100). Analysis was performed using a PARTEC EPICSXL (Germany) and data was analyzed using FCS Express 6. […]
# [2] = test system: bronchial epithelial cells (BEAS-2B)
# Method: (§1) anti-HA Ab and blotted with indicated Abs. c, Cell viability of indicated cells treated with
# (§2) Data are means ± SEM of 3 independent assays. d,
# (§3) CCK-8 was conducted to detect the cell viability in cell proliferation and cytotoxicity assays
# (§4) according to the manufacturer’s instructions (Dojindo Inc., Kumamoto, Japan). Cells were
# (§5) plated in 96-well plates, starting at 3,000 cells/well. For cytotoxicity assay, the cells were
# (§6) treated with indicated drugs, then a mixture of 10 µl CCK-8 solution and 90 µl complete culture
# (§7) medium was added into each well. After 1 hr of incubation, the absorbance was measured at
# [3] = In vivo bio-distribution and clearance of FAM-labeled peptide (IVIS); settings: FAM-labeled peptides, bolus tail vein injection 2 mg kg-1, male athymic BALB/c nude mice
# Method: detected by Exactive™ Plus Orbitrap (Thermo Fisher Scientific, USA).
# In vitro plasma stability assay
# The rat blood was collected by
# The plasma solutions were incubated […]
# ionization mass spectrometric detection. The values represent the mean of 3 independent assays.
# In vivo bio-distribution and clearance of peptide
# OH, USA). Data was analyzed by the built-in software.
# [4] = test system: colonic mucosal epithelial cells (NCM460)
# Method: as §1, §2, §3, §4, §5, §6, §7
# [5] = design: species or system BALB/c nude mice; settings: mouse, in vivo
# Method: twice a week for 4 weeks. […] Data are means ± SEM of 3 independent assays. […] CALM: Calmodulin. […] Lung cancer cells were isolated from PDX mice by using the […] One week after tumor inoculation, mice were […] or pemetrexed (100 mg kg-1, once a day). Tumor growth was monitored twice weekly with a caliper. Tumor volume (T ) was calculated using the formula: T =0.5×L×W 2. Mice survival V V […] signs of distress. […] Generation of Stable Cell Lines To establish cell populations stably expressing TRIB3-shRNA1/2, or the Control-shRNA, cells were transfected with TRIB3-shRNA1/2 or the Control-shRNA expressing plasmids. Stable transfectants were selected in medium containing hygromycin. […] (Supplementary Fig. 9a).
# [6] = In vitro plasma stability assay; settings: normalised to 100 at 0 min
# Method: The in vitro stability of the peptide was studied in rat plasma. The rat blood was collected by
# retroorbital puncture and plasma was harvested after centrifugation (2,500×g, 5 min, 4℃) and
# stored at -70℃. The reactions were initiated by adding the test peptide to 100 µl of preheated
# plasma solution to yield a final concentration of 4 mM. The plasma solutions were incubated
# for indicated times and added 200 µl acetonitrile to deproteinize the plasma. The samples were
# subjected to vortex mixing for 1 min and centrifugation for 15 min (14,000 rpm, 4℃). Peptide
# concentration in supernatants was determined by reversed-phase HPLC with electrospray
# A549 cells = assay: CCK-8 cell viability / cytotoxicity, A549; assay type: cell-based; settings: Homo sapiens, read-out: IC50 of pemetrexed, A549, before sensitization
# Method: as §3, §4, §5, §6, §7
# NCI-H1975 cells = assay: CCK-8 cell viability / cytotoxicity, NCI-H1975; assay type: cell-based; settings: Homo sapiens
# Method: as §3, §4, §5, §6, §7
# Method for keratinocytes (HaCaT): as §1, §2, §3, §4, §5, §6, §7
compound,measurement,setting,value
CC[C@@]1([C@@H]2O[C@@H]([C@H]3O[C@@](O)(CO)[C@H](C)C[C@@H]3C)C[C@@H]2C)CC[C@H]([C@]2(C)CC[C@]3(C[C@H](O)[C@@H](C)[C@@H]([C@@H](C)[C@@H](OC)[C@H](C)C(=O)O)O3)O2)O1 [monensin],EGFR membrane level,[1],reduced the EGFR membrane level
CC[C@H](C)[C@@H]1NC(=O)[C@@](C)(NC(=O)[C@H](CC(C)C)NC(=O)[C@H](CC(C)C)NC(=O)[C@H](C)NC(=O)[C@H](CCC(N)=O)NC(=O)[C@@H](N)CC(N)=O)CCCC=CCCC[C@@](C)(C(=O)N[C@H](C(=O)N[C@@H](CCC(=O)O)C(=O)N[C@@H](Cc2ccccc2)C(=O)N[C@@H](CCCCN)C(=O)N[C@@H](CCCCN)C(=O)O)[C@@H](C)O)NC(=O)[C@H](CCCNC(=N)N)NC(=O)[C@H](CC(C)C)NC1=O [SAH-JGZ4] (H-NQALL[S5]ILR[S5]TEFKK-OH; staple 6-10),"cell viability, BEAS-2B",[2],had no effect on the cell viability
same,half-clearance rate in vivo compared with Pep2-JGZ,[3],slower half-clearance rate
same,"cell viability, NCM460",[4],had no effect on the cell viability
same,"cell viability, HaCaT",keratinocytes (HaCaT),had no effect on the cell viability
same,EGFR and HER2 expression in the heart,[5],did not cause reductions in
same,peptide remaining,"[6]; 450 min, replicate 1",113.749
same,peptide remaining,"[6]; 450 min, replicate 2",125.15
same,peptide remaining,"[6]; 450 min, replicate 3",119.761
same,peptide remaining,"[6]; 540 min, replicate 1",115.041
same,peptide remaining,"[6]; 540 min, replicate 2",121.067
same,peptide remaining,"[6]; 540 min, replicate 3",118.562
same,peptide remaining,"[6]; 630 min, replicate 1",106.23
same,peptide remaining,"[6]; 630 min, replicate 2",116.53
same,peptide remaining,"[6]; 630 min, replicate 3",116.365
same,peptide remaining,"[6]; 720 min, replicate 1",109.883
same,peptide remaining,"[6]; 720 min, replicate 2",113.113
same,peptide remaining,"[6]; 720 min, replicate 3",112.463
Nc1nc2[nH]cc(CCc3ccc(C(=O)N[C@@H](CCC(=O)O)C(=O)O)cc3)c2c(=O)[nH]1 [pemetrexed],IC50,A549 cells,245 nM
same,IC50,"NCI-H1975 cells; NCI-H1975, read-out: IC50 of pemetrexed, H1975, sensitized by SAH-JGZ4",793 nM
same,IC50,"NCI-H1975 cells; NCI-H1975, read-out: IC50 of pemetrexed, H1975, before sensitization",3170 nM
